Source: ChEMBL document CHEMBL1158147, “Ultraviolet-mediated cytotoxic activity of phenylheptatriyne from Bidens pilosa L” (J Nat Prod, 1979)
Calls of active or inactive are those of the source. No cut-off for these calls is given here.

Assays:
Bacillus subtilis [1] = experiment: Phototoxicity against Bacillus subtilis at 10 ug/disk in presence of long wave UV light; format: functional, organism-based
Bacillus subtilis [2] = experiment: Phototoxicity against Bacillus subtilis at 10 ug/disk in dark; format: functional, organism-based
Kocuria rosea [3] = experiment: Phototoxicity against Micrococcus roseus UBC 289 at 10 ug/disk in presence of long wave UV light; format: functional, organism-based
Kocuria rosea [4] = experiment: Phototoxicity against Micrococcus roseus UBC 289 at 10 ug/disk in presence of cool-white fluorescent light; format: functional, organism-based
Kocuria rosea [5] = experiment: Phototoxicity against Micrococcus roseus UBC 289 at 10 ug/disk in dark; format: functional, organism-based
[6] = system: Staphylococcus epidermidis; experiment: Phototoxicity against Staphylococcus albus at 10 ug/disk in presence of long wave UV light; format: functional, organism-based
[7] = system: Staphylococcus epidermidis; experiment: Phototoxicity against Staphylococcus albus at 10 ug/disk in presence of cool-white fluorescent light; format: functional, organism-based
[8] = system: Staphylococcus epidermidis; experiment: Phototoxicity against Staphylococcus albus at 10 ug/disk in dark; format: functional, organism-based
Enterococcus faecalis [9] = experiment: Phototoxicity against Streptococcus faecalis at 10 ug/disk in presence of long wave UV light; format: functional, organism-based
Enterococcus faecalis [10] = experiment: Phototoxicity against Streptococcus faecalis at 10 ug/disk in presence of cool-white fluorescent light; format: functional, organism-based
Enterococcus faecalis [11] = experiment: Phototoxicity against Streptococcus faecalis at 10 ug/disk in dark; format: functional, organism-based
Escherichia coli [12] = experiment: Phototoxicity against Escherichia coli at 10 ug/disk in presence of long wave UV light; format: functional, organism-based
Escherichia coli [13] = experiment: Phototoxicity against Escherichia coli at 10 ug/disk in presence of cool-white fluorescent light; format: functional, organism-based
Escherichia coli [14] = experiment: Phototoxicity against Escherichia coli at 10 ug/disk in dark; format: functional, organism-based
Proteus mirabilis [15] = experiment: Phototoxicity against Proteus mirabilis UBC 5 at 10 ug/disk in presence of long wave UV light; format: functional, organism-based
Proteus mirabilis [16] = experiment: Phototoxicity against Proteus mirabilis UBC 5 at 10 ug/disk in presence of cool-white fluorescent light; format: functional, organism-based
Proteus mirabilis [17] = experiment: Phototoxicity against Proteus mirabilis UBC 5 at 10 ug/disk in dark; format: functional, organism-based
Pseudomonas fluorescens [18] = experiment: Phototoxicity against Pseudomonas fluorescens at 10 ug/disk in presence of long wave UV light; format: functional, organism-based
Pseudomonas fluorescens [19] = experiment: Phototoxicity against Pseudomonas fluorescens at 10 ug/disk in presence of cool-white fluorescent light; format: functional, organism-based
Pseudomonas fluorescens [20] = experiment: Phototoxicity against Pseudomonas fluorescens at 10 ug/disk in dark; format: functional, organism-based
Candida albicans [21] = experiment: Phototoxicity against Candida albicans at 10 ug/disk in presence of long wave UV light; format: functional, organism-based
Candida albicans [22] = experiment: Phototoxicity against Candida albicans at 10 ug/disk in presence of cool-white fluorescent light; format: functional, organism-based
Candida albicans [23] = experiment: Phototoxicity against Candida albicans at 10 ug/disk in dark; format: functional, organism-based
Rhodotorula mucilaginosa [24] = experiment: Phototoxicity against Rhodotorula rubra Y96 at 10 ug/disk in presence of long wave UV light; format: functional, organism-based
Rhodotorula mucilaginosa [25] = experiment: Phototoxicity against Rhodotorula rubra Y96 at 10 ug/disk in dark; format: functional, organism-based
Saccharomyces cerevisiae [26] = experiment: Phototoxicity against Saccharomyces cerevisiae at 10 ug/disk in presence of long wave UV light; format: functional, organism-based
Saccharomyces cerevisiae [27] = experiment: Phototoxicity against Saccharomyces cerevisiae at 10 ug/disk in presence of cool-white fluorescent light; format: functional, organism-based
Saccharomyces cerevisiae [28] = experiment: Phototoxicity against Saccharomyces cerevisiae at 10 ug/disk in dark; format: functional, organism-based
Sporobolomyces [29] = experiment: Phototoxicity against Sporobolomyces sp. Y138 at 10 ug/disk in presence of long wave UV light; format: functional, organism-based
Sporobolomyces [30] = experiment: Phototoxicity against Sporobolomyces sp. Y138 at 10 ug/disk in presence of cool-white fluorescent light; format: functional, organism-based
Sporobolomyces [31] = experiment: Phototoxicity against Sporobolomyces sp. Y138 at 10 ug/disk in dark; format: functional, organism-based
Torula [32] = experiment: Phototoxicity against Torula sp. at 10 ug/disk in presence of long wave UV light; format: functional, organism-based
Torula [33] = experiment: Phototoxicity against Torula sp. at 10 ug/disk in dark; format: functional, organism-based
Fusarium sp. [34] = experiment: Phototoxicity against Fusarium sp. at 10 ug/disk in presence of long wave UV light; format: functional, organism-based
Fusarium sp. [35] = experiment: Phototoxicity against Fusarium sp. at 10 ug/disk in presence of cool-white fluorescent light; format: functional, organism-based
Fusarium sp. [36] = experiment: Phototoxicity against Fusarium sp. at 10 ug/disk in dark; format: functional, organism-based
Microsporum canis [37] = experiment: Phototoxicity against Microsporum canis at 10 ug/disk in presence of long wave UV light; format: functional, organism-based
Microsporum canis [38] = experiment: Phototoxicity against Microsporum canis at 10 ug/disk in presence of cool-white fluorescent light; format: functional, organism-based
Microsporum canis [39] = experiment: Phototoxicity against Microsporum canis at 10 ug/disk in dark; format: functional, organism-based
Paraphyton cookei [40] = experiment: Phototoxicity against Microsporum cookei at 10 ug/disk in presence of long wave UV light; format: functional, organism-based
Paraphyton cookei [41] = experiment: Phototoxicity against Microsporum cookei at 10 ug/disk in presence of cool-white fluorescent light; format: functional, organism-based
Paraphyton cookei [42] = experiment: Phototoxicity against Microsporum cookei at 10 ug/disk in dark; format: functional, organism-based
Nannizzia gypsea [43] = experiment: Phototoxicity against Microsporum gypseum at 10 ug/disk in presence of long wave UV light; format: functional, organism-based
Nannizzia gypsea [44] = experiment: Phototoxicity against Microsporum gypseum at 10 ug/disk in presence of cool-white fluorescent light; format: functional, organism-based
Nannizzia gypsea [45] = experiment: Phototoxicity against Microsporum gypseum at 10 ug/disk in dark; format: functional, organism-based
[46] = system: Trichophyton mentagrophytes; experiment: Phototoxicity against Trichophyton mentagrophytes at 10 ug/disk in presence of long wave UV light; format: functional, organism-based
[47] = system: Trichophyton mentagrophytes; experiment: Phototoxicity against Trichophyton mentagrophytes at 10 ug/disk in presence of cool-white fluorescent light; format: functional, organism-based
[48] = system: Trichophyton mentagrophytes; experiment: Phototoxicity against Trichophyton mentagrophytes at 10 ug/disk in dark; format: functional, organism-based
Candida albicans [49] = experiment: Phototoxicity against Candida albicans at 5 ug/disk after UV irradiation for 15 mins; format: functional; conditions: light or radiation study, 0.25 h, read-out: IZ
Candida albicans [50] = experiment: Phototoxicity against Candida albicans at 5 ug/disk after UV irradiation for 30 mins; format: functional; conditions: light or radiation study, 0.5 h, read-out: IZ
Candida albicans [51] = experiment: Phototoxicity against Candida albicans at 5 ug/disk after UV irradiation for 180 mins; format: functional; conditions: light or radiation study, 3 h, read-out: IZ
Saccharomyces cerevisiae [52] = experiment: Phototoxicity against Saccharomyces cerevisiae at 5 ug/disk after UV irradiation for 15 mins; format: functional; conditions: light or radiation study, 0.25 h, read-out: IZ
Saccharomyces cerevisiae [53] = experiment: Phototoxicity against Saccharomyces cerevisiae at 5 ug/disk after UV irradiation for 30 mins; format: functional; conditions: light or radiation study, 0.5 h, read-out: IZ
Saccharomyces cerevisiae [54] = experiment: Phototoxicity against Saccharomyces cerevisiae at 5 ug/disk after UV irradiation for 180 mins; format: functional; conditions: light or radiation study, 3 h, read-out: IZ
DNA [55] = experiment: Photochemical activity against denatured calf thymus DNA at 10 ug by hyperchromicity test; format: nucleic-acid assay; conditions: Bos taurus
DNA [56] = experiment: Photochemical activity against denatured calf thymus DNA 10 ug after UV irradiation with 2.67 Joules/cm'2 for 30 mins at by hyperchromicity test; format: nucleic-acid assay; conditions: Bos taurus
DNA [57] = experiment: Photochemical activity against denatured calf thymus DNA at 10 ug after UV irradiation with 5.33 Joules/cm'2 for 60 mins by hyperchromicity test; format: nucleic-acid assay; conditions: Bos taurus
DNA [58] = experiment: Photochemical activity against denatured calf thymus DNA at 10 ug after UV irradiation with 10.67 Joules/cm'2 for 120 mins by hyperchromicity test; format: nucleic-acid assay; conditions: Bos taurus; note: unit not given here
DNA [59] = experiment: Photochemical activity against denatured calf thymus DNA at 10 ug after UV irradiation with 16.00 Joules/cm'2 for 180 mins by hyperchromicity test; format: nucleic-acid assay; conditions: Bos taurus
DNA [60] = experiment: Photochemical activity against denatured calf thymus DNA at 10 ug in dark by hyperchromicity test; format: nucleic-acid assay; conditions: Bos taurus; note: unit not given here
DNA [61] = experiment: Photochemical activity against denatured calf thymus DNA at 10 ug in dark after 30 mins by hyperchromicity test; format: nucleic-acid assay; conditions: Bos taurus
DNA [62] = experiment: Photochemical activity against denatured calf thymus DNA at 10 ug in dark after 60 mins by hyperchromicity test; format: nucleic-acid assay; conditions: Bos taurus; note: unit not given here
DNA [63] = experiment: Photochemical activity against denatured calf thymus DNA at in dark after 120 mins by hyperchromicity test; format: nucleic-acid assay; conditions: Bos taurus; note: unit not given here
DNA [64] = experiment: Photochemical activity against denatured calf thymus DNA at in dark after 180 mins by hyperchromicity test; format: nucleic-acid assay; conditions: Bos taurus

Activity (DNA [55]): 0.18
Activity (DNA [56]): 0.18
Activity (DNA [57]): 0.18
Activity (DNA [58]): 0.17
Activity (DNA [59]): 0.18
Activity (DNA [60]): 0.17
Activity (DNA [61]): 0.17
Activity (DNA [62]): 0.17
Activity (DNA [63]): 0.17
Activity (DNA [64]): 0.17
SMILES: COc1c2occc2cc2ccc(=O)oc12 [METHOXSALEN]
Activity (Bacillus subtilis [1]): Active
Activity (Bacillus subtilis [2]): inactive
Activity (Kocuria rosea [3]): Active
Activity (Kocuria rosea [4]): inactive
Activity (Kocuria rosea [5]): inactive
Activity [6]: Active
Activity [7]: Active
Activity [8]: inactive
Activity (Enterococcus faecalis [9]): Active
Activity (Enterococcus faecalis [10]): inactive
Activity (Enterococcus faecalis [11]): inactive
Activity (Escherichia coli [12]): Active
Activity (Escherichia coli [13]): inactive
Activity (Escherichia coli [14]): inactive
Activity (Proteus mirabilis [15]): Active
Activity (Proteus mirabilis [16]): inactive
Activity (Proteus mirabilis [17]): inactive
Activity (Pseudomonas fluorescens [18]): inactive
Activity (Pseudomonas fluorescens [19]): inactive
Activity (Pseudomonas fluorescens [20]): inactive
Activity (Candida albicans [21]): Active
Activity (Candida albicans [22]): Active
Activity (Candida albicans [23]): inactive
Activity (Rhodotorula mucilaginosa [24]): Active
Activity (Rhodotorula mucilaginosa [25]): inactive
Activity (Saccharomyces cerevisiae [26]): Active
Activity (Saccharomyces cerevisiae [27]): Active
Activity (Saccharomyces cerevisiae [28]): inactive
Activity (Sporobolomyces [29]): Active
Activity (Sporobolomyces [30]): Active
Activity (Sporobolomyces [31]): inactive
Activity (Torula [32]): Active
Activity (Torula [33]): inactive
Activity (Fusarium sp. [34]): Active
Activity (Fusarium sp. [35]): inactive
Activity (Fusarium sp. [36]): inactive
Activity (Microsporum canis [37]): Active
Activity (Microsporum canis [38]): Active
Activity (Microsporum canis [39]): inactive
Activity (Paraphyton cookei [40]): Active
Activity (Paraphyton cookei [41]): Active
Activity (Paraphyton cookei [42]): inactive
Activity (Nannizzia gypsea [43]): Active
Activity (Nannizzia gypsea [44]): Active
Activity (Nannizzia gypsea [45]): inactive
Activity [46]: Active
Activity [47]: inactive
Activity [48]: inactive
zone of inhibition at 5 µg/disc (Candida albicans [49]): 13 mm
zone of inhibition at 5 µg/disc (Candida albicans [50]): 15 mm
zone of inhibition at 5 µg/disc (Candida albicans [51]): 17 mm
zone of inhibition at 5 µg/disc (Saccharomyces cerevisiae [52]): 17 mm
zone of inhibition at 5 µg/disc (Saccharomyces cerevisiae [53]): 18 mm
zone of inhibition at 5 µg/disc (Saccharomyces cerevisiae [54]): 20 mm
